pEC50: −log10 of the molar value. Values joined by “and” are separate entries in the source; they are usually repeats but may differ in a detail not shown here. Equal values may be shown once.
Assays:
DmelOrco T80W = DmelOrco T80W (Drosophila melanogaster, UniProt Q9VNB5, T80W); test: TEVC recording of VUAA1-induced current, DmelOrco T80W in Xenopus oocytes; assay type: cell-based; parameters: VUAA1-induced current, T80W: unit not given here; settings: for VUAA1-induced current, T80W: individual oocytes
Description: (§1) All Orco gene sequences were optimized[63] for protein expression in Xenopus laevis oocytes with the GenSmartTM Codon optimization Tool and subcloned into a pGEMHE-derived vector. The wildtype gene of Drosophila melanogaster Orco (DmelOrco) was synthesized by Genscript and subcloned with XmaI/XhoI cloning sites. Site-directed mutagenesis of DmelOrco was done by PCR with the Q5® site directed mutagenesis kit (NEB) using primers optimized with the NEBase Changer online tool and following the supplier’s protocol. After transformation of commercial competent bacteria (XL10 Gold) by standard heat-shock protocol and overnight culture in ampicillin-containing LB plates, positive clones were identified by electrophoretic restriction profile and external sequencing (Genewiz). DNAs of positive clones were amplified with Qiagen MidiPrep Kit and the ORF was fully sequenced. For in vitro transcription, DNAs were linearized with restriction enzyme NotI that cuts a unique site in the 3′ region of the polyA tail. The linearized DNAs were purified by the standard phenol:chloroform extraction method and transcribed into mRNA using the T7 ultra mMessage mMachine kit (Thermo Fisher Scientific). mRNAs were purified with the NucleoSpin RNA plus XS kit (Machery-Nagel). DNA and RNA were analyzed by agarose-gel electrophoresis and quantified by spectrophotometry.
(§2) Xenopus laevis oocytes were prepared, as previously described. Briefly, oocytes were defolliculated after surgical retrieval by type 1 A collagenase over 2-3 h under smooth horizontal agitation. They were manually selected and incubated at 19 °C in modified-Barth’s solution (1 mM KCl, 0.82 mM MgSO4, 88 mM NaCl, 2.4 mM NaHCO3, 0.41 mM CaCl2, Ca(NO3)2 0.3 mM, 16 mM HEPES, pH 7.4) supplemented with 100 U mL^−1 of penicillin and streptomycin and 0.1 mg mL^−1 of gentamycin. Each oocyte was micro-injected with the Nanoject instrument (Drummond) with 50 nL of 20 ng of mRNA coding for the Orco of interest. Injected oocytes were incubated individually in 96-well plates for 4 days at 19 °C in the same buffer. Different batches of oocytes have been tested per construct. The results of the mutants of interest have been confirmed by a second set of experiments comparing the amplitudes with WT in the same day and from the same batch of oocytes (Supplementary Fig. 11).
(§3) Whole cell currents were recorded with the two-electrode voltage-clamp (TEVC) technique with the HiClamp robot (MultiChannel System). Microelectrodes were filled with 3 M KCl. The high K^+ buffer used for recordings was composed of 91 mM KCl, 1 mM MgCl2, 1.8 mM CaCl2, 5 mM HEPES, pH 7.4. Membrane voltage was clamped to −50 mV and VUAA1 was applied for 60 s. Data were extracted with M. Vivaudou’s programs[65] and statistically analyzed with Prism 8 (Graphpad).

DmelOrco Y397F = DmelOrco Y397F (Drosophila melanogaster, UniProt Q9VNB5, Y397F); test: TEVC recording of VUAA1-induced current, DmelOrco Y397F in Xenopus oocytes; assay type: cell-based; parameters: VUAA1-induced current, Y397F: unit not given here
Description: as §1, with “The linearized DNAs were purified by the standard phenol:chloroform extraction method and transcribed into mRNA using the T7 ultra mMessage mMachine kit (Thermo Fisher Scientific). mRNAs were purified with the NucleoSpin RNA plus XS kit (Machery-Nagel).” left out, “spectrophotometry. […]” for “spectrophotometry.”
(§4) Whole cell currents were recorded with the two-electrode voltage-clamp (TEVC) technique with the HiClamp robot (MultiChannel System). […] Data were extracted with M. Vivaudou’s programs[65] and statistically analyzed with Prism 8 (Graphpad).

DmelOrco F84A = DmelOrco F84A (Drosophila melanogaster, UniProt Q9VNB5, F84A); test: TEVC recording of VUAA1-induced current, DmelOrco F84A in Xenopus oocytes; assay type: cell-based
Description: as §1
Xenopus laevis oocytes were prepared, as previously described. Briefly, oocytes were defolliculated after surgical retrieval by type 1 A collagenase over 2-3 h under smooth horizontal agitation. They were manually selected and incubated at 19 °C in modified-Barth’s solution (1 mM KCl, 0.82 mM MgSO4, 88 mM NaCl, 2.4 mM NaHCO3, 0.41 mM CaCl2, Ca(NO3)2 0.3 mM, 16 mM HEPES, pH 7.4) supplemented with 100 U mL^−1 of penicillin and streptomycin and 0.1 mg mL^−1 of gentamycin. […]
as §4

DmelOrco Y390F = DmelOrco Y390F (Drosophila melanogaster, UniProt Q9VNB5, Y390F); test: TEVC recording of VUAA1-induced current, DmelOrco Y390F in Xenopus oocytes; assay type: cell-based; settings: 500 µM VUAA1, TEVC
Description: as §1, with “The linearized DNAs were purified by the standard phenol:chloroform extraction method and transcribed into mRNA using the T7 ultra mMessage mMachine kit (Thermo Fisher Scientific). mRNAs were purified with the NucleoSpin RNA plus XS kit (Machery-Nagel).” left out, “spectrophotometry. […]” for “spectrophotometry.”
as §4

DmelOrco L141A = DmelOrco L141A (Drosophila melanogaster, UniProt Q9VNB5, L141A); test: TEVC recording of VUAA1-induced current, DmelOrco L141A in Xenopus oocytes; assay type: cell-based; settings: 500 µM VUAA1, TEVC
Description: as §1, with “For in vitro transcription, DNAs were linearized with restriction enzyme NotI that cuts a unique site in the 3′ region of the polyA tail. The linearized DNAs were purified by the standard phenol:chloroform extraction method and transcribed into mRNA using the T7 ultra mMessage mMachine kit (Thermo Fisher Scientific). mRNAs were purified with the NucleoSpin RNA plus XS kit (Machery-Nagel).” left out, “spectrophotometry. […]” for “spectrophotometry.”
Whole cell currents were recorded with the two-electrode voltage-clamp (TEVC) technique with the HiClamp robot (MultiChannel System). […] Data were extracted with M. Vivaudou’s programs[65] and statistically analyzed with Prism 8 (Graphpad). […]
100 by 500 µM of the ligand VUAA1 and measured by TEVC recordings on DmelOrco WT and mutants […]

MhraOR5 = system: MhraOR5; parameters: method as in PMID 34349260; settings: cited from earlier work
DmelOrco M210A = DmelOrco M210A (Drosophila melanogaster, UniProt Q9VNB5, M210A); test: TEVC recording of VUAA1-induced current, DmelOrco M210A in Xenopus oocytes; assay type: cell-based; settings: 500 µM VUAA1, TEVC
Description: as §1, with “The linearized DNAs were purified by the standard phenol:chloroform extraction method and transcribed into mRNA using the T7 ultra mMessage mMachine kit (Thermo Fisher Scientific). mRNAs were purified with the NucleoSpin RNA plus XS kit (Machery-Nagel).” left out, “spectrophotometry. […]” for “spectrophotometry.”
as §4

DmelOrco WT = target: T1, DmelOrco WT (Drosophila melanogaster, UniProt Q9VNB5); test: TEVC recording of VUAA1-induced current, DmelOrco WT in Xenopus oocytes; assay type: cell-based; parameters: VUAA1-induced current, WT: unit not given here; settings: for VUAA1-induced current, WT: individual oocytes
T1 sequence (Q9VNB5 1-486): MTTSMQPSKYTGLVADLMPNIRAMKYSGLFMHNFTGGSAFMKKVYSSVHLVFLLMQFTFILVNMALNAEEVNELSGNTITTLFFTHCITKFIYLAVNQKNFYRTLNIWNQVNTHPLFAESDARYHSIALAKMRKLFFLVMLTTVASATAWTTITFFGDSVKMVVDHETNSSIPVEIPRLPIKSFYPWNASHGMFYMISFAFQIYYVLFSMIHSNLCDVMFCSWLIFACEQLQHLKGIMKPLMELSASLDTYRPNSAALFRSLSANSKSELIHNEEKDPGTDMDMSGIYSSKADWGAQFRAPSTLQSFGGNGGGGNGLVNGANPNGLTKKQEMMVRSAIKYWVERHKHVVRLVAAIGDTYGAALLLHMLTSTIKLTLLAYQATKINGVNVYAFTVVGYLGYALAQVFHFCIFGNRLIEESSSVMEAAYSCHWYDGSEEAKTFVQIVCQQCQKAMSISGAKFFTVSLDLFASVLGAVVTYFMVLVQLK
Description: as §1, §2, §3

[1] = Fig.4i dose-response, VUAA1 10 µM (Log(M) -5)
[2] = Fig.4i dose-response, VUAA1 25 µM (Log(M) -4.6)
[3] = Fig.4i dose-response, VUAA1 50 µM (Log(M) -4.3)
[4] = Fig.4i dose-response, VUAA1 100 µM (Log(M) -4)
[5] = Fig.4i dose-response, VUAA1 500 µM (Log(M) -3.3)

DmelOrco T80W, sequence (Q9VNB5 whole entry T80W, the tested form may be a part): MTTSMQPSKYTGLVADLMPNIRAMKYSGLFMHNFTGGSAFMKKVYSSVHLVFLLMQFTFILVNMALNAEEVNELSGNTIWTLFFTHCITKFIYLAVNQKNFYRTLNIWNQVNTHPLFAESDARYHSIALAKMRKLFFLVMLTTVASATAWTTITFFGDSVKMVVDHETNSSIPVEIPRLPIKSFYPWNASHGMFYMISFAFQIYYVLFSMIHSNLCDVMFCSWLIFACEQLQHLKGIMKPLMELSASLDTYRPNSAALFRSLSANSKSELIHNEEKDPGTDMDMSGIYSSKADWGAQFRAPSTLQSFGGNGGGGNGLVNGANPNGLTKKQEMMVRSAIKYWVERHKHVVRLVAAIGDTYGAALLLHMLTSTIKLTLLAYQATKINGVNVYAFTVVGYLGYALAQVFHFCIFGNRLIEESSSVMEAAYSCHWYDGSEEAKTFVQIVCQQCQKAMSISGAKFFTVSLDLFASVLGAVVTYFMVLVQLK
DmelOrco F84A, sequence (Q9VNB5 whole entry F84A, the tested form may be a part): as the sequence (Q9VNB5 whole entry T80W, the tested form may be a part) above, with W80T, F84A counted along it
DmelOrco Y397F, sequence (Q9VNB5 whole entry Y397F, the tested form may be a part): as the sequence (Q9VNB5 whole entry T80W, the tested form may be a part) above, with W80T, Y397F counted along it
DmelOrco M210A, sequence (Q9VNB5 whole entry M210A, the tested form may be a part): as the sequence (Q9VNB5 whole entry T80W, the tested form may be a part) above, with W80T, M210A counted along it
DmelOrco L141A, sequence (Q9VNB5 whole entry L141A, the tested form may be a part): as the sequence (Q9VNB5 whole entry T80W, the tested form may be a part) above, with W80T, L141A counted along it
DmelOrco Y390F, sequence (Q9VNB5 whole entry Y390F, the tested form may be a part): as the sequence (Q9VNB5 whole entry T80W, the tested form may be a part) above, with W80T, Y390F counted along it

Compound: CCc1ccc(NC(=O)CSc2nnc(-c3cccnc3)n2CC)cc1 [VUAA1, N-(4-ethylphenyl)−2-((4-ethyl-5-(3-pyridinyl)−4H-1,2,4-triazol-3-yl)thio)acetamide]
- Response to VUAA1 compared with WT (DmelOrco T80W; 500 µM VUAA1, TEVC, T80W): significantly reduced or abolished the activation
- VUAA1-induced current, T80W (DmelOrco T80W; Fig.4b): 0.01 and 0.63 and 0.07 and 0.04 and 0.05 and 0.57 and 0.84 and 0.02
- VUAA1-induced current, T80W (DmelOrco T80W; [1]): 0.03 and 0.06 (2×) and 0.07 and 0.2 (2×) and 0 and 0.12
- VUAA1-induced current, T80W (DmelOrco T80W; [2]): 0.05 and 0.08 and 0.11 and 0.35 and 0.01 and 0.07 and 0.14 and 0.15
- VUAA1-induced current, T80W (DmelOrco T80W; [3]): 0.09 and 0.1 and 0.13 and 0.45 and 0.01 and 0.05 and 0.31 and 0.15
- VUAA1-induced current, T80W (DmelOrco T80W; [4]): 0.12 and 0.1 and 0.13 (2×) and 0.42 and 0 and 0.08 and 0.29
- VUAA1-induced current, T80W (DmelOrco T80W; [5]): 0.19 and 0.12 (3×) and 0.14 and 0.45 and 0.01 and 0.07
- VUAA1-induced current, T80W (DmelOrco T80W; Fig.4i dose-response, VUAA1 1000 µM (Log(M) -3)): 0.26 and 0.16 and 0.18 and 0.47 and 0.02 and 0.23 and 0.31 and 0.1
- Imax (DmelOrco T80W; concentration-effect curve of VUAA1, TEVC, T80W): 0.23 µA
- Response to VUAA1 compared with WT (DmelOrco Y397F; 500 µM VUAA1, TEVC, Y397F): did not significantly change the amplitude of activation
- VUAA1-induced current, Y397F (DmelOrco Y397F; Fig.4b, individual oocytes): 14.1 and 7.4 and 4.67 and 7.65 and 5.6 and 7.22 and 3.47 and 4.51 and 1.74 and 9.4 and 9.69 and 15.89
- pEC50 (DmelOrco F84A): 3.98
- Current induced by VUAA1 (median) (DmelOrco F84A; 500 µM VUAA1, TEVC, F84A): 0.68 µA
- Imax (DmelOrco F84A; concentration-effect curve of VUAA1, TEVC, F84A): 1.01 µA
- Response to VUAA1 compared with WT (DmelOrco Y390F): did not show significant change
- Response to VUAA1 compared with WT (DmelOrco L141A): did not induce significant change
- Activation of MhraOR5 (MhraOR5): not by VUAA1
- Current induced by VUAA1 (median) (DmelOrco M210A): 5.72 µA
- Current induced by VUAA1 (median) (DmelOrco WT; 500 µM VUAA1, TEVC, WT): 4.71 µA
- Current amplitude in the presence of VUAA1 compared with Orcos of other species (DmelOrco WT; 500 µM VUAA1, TEVC, versus AbakOrco, AalbOrco, CquiOrco): highest current amplitude
- VUAA1-induced current, WT (DmelOrco WT; Fig.4b): 1.7 and 1.54 and 2.24 and 5.84 and 5.68 and 11.97 and 10.02 and 8.3 and 7.33 and 2.12 and 1.87 and 2.7 and 3.73 and 16.35 and 2.15 and 5.7
- VUAA1-induced current, WT (DmelOrco WT; [1]): 0.03 and 0.04 (2×) and 0.02 and 0.09 and 0.05 and 0.06
- VUAA1-induced current, WT (DmelOrco WT; [2]): 0.27 and 0.36 and 0.04 (4×) and 0.08 (2×) and 0.03 (3×) and 0.02 and 0.05 (3×) and 0.15 and 0 and 0.09 and 0.12 and 0.07
- VUAA1-induced current, WT (DmelOrco WT; [3]): 0.58 and 0.72 and 0.4 (2×) and 0.37 and 0.54 and 0.11 and 0.17 and 0.26 (3×) and 0.21 and 0.34 and 0.77 and 1.04 and 1.01 (2×) and 0.78 and 1.15 and 1.23
- VUAA1-induced current, WT (DmelOrco WT; [4]): 1.33 and 1.71 and 2.65 and 2.17 (2×) and 2.77 and 1.82 and 2.07 and 2.22 and 1.61 and 2.38 and 1.2 and 1.79 and 2.19 and 2.6 and 2.64 (2×) and 1.94 and 2.47 and 2.54
- VUAA1-induced current, WT (DmelOrco WT; [5]): 3.64 (2×) and 4.55 and 3.85 and 4.63 and 4.01 and 4.3 and 4.47 and 4.77 and 5.33 and 1.53 and 3.97 and 4.65 and 2.65 and 2.64 and 2.78 (2×)
- pEC50 (DmelOrco WT; VUAA1 dose-response curve, TEVC, WT): 4.02
- Imax (DmelOrco WT; concentration-effect curve of VUAA1, TEVC, WT): 3.97 µA

From publication PMC10713630, “Elucidation of the structural basis for ligand binding and translocation in conserved insect odorant receptor co-receptors” (Nature Communications, 2023)
